Here are results for 6 molecules from US12473339B2, “Acylated glucagon analogues” (Zealand Pharma A/S, priority 2013, dated 2025).

Broadly, the EC50 is the midpoint of the concentration-response curve.

*1 amine or outer side, *2 acyl side, *3 side chain or, on linkers, in order; H or OH if unused. Where a SMILES comes first, the peptide text is derived from it. Side-chain parts run from the residue outwards. [ ]: non-standard residue; d: D form. The star is where a group is joined. C18 diacid = O=C(O)CCCCCCCCCCCCCCCCC(=O)*; γGlu = O=C(O)[C@H](CCC(=O)[*:2])N[*:1]; AEEA = NCCOCCOCC(=O)O; Aib = CC(C)(N)C(=O)O

One assay deals with T1, human glucagon-like peptide 1 receptor (GLP-1R) (Homo sapiens, UniProt P43220).
T1 construct: expressed in transfected cells
T1 sequence (P43220 24-463): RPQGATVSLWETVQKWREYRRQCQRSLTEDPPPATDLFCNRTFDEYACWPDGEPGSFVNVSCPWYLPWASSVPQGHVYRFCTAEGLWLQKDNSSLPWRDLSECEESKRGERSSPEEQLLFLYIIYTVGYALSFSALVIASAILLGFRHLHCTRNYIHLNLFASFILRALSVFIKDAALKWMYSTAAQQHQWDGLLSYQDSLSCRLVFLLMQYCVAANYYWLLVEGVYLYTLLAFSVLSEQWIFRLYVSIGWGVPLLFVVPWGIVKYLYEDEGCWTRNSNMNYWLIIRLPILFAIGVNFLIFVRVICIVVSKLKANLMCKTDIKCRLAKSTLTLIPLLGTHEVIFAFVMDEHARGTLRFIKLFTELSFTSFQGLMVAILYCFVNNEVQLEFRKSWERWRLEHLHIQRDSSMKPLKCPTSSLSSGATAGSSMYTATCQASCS
The assay is described as follows: GLP-1 receptor efficacy assay (cAMP AlphaScreen, CHO cells). Conditions: EC50 [GLP-1R] / EC50 [Glucagon-R], human receptors in CHO-K1. It counts as cell-based. From the text:
The cDNA encoding either the human glucagon receptor (Glucagon-R) (primary accession number P47871) or the human glucagon-like peptide 1 receptor (GLP-1R) (primary accession number P43220) were synthesized and cloned into a mammalian expression vector containing a Zeocin resistance marker.
The mammalian expression vectors encoding the Glucagon-R or the GLP-1-R were transfected into Chinese hamster ovary (CHO) cells by the Attractene method. Stably expressing clones were obtained by Zeocin selection (250 μg/mL) upon limited dilution of cells resistant to the selection pressure. Glucagon-R and GLP-1-R cell clones expressing were picked, propagated and tested in the Glucagon-R and GLP-1-R efficacy assays as described below. One Glucagon-R expressing clone and one GLP-1-R expressing clone were chosen for compound profiling.
CHO cells expressing the human Glucagon-R, or human GLP-1-R were seeded 24 hours prior to the assay at 30,000 cells per well in 96-well microtiter plates in culture in 100 μl growth medium. On the day of analysis, growth medium was removed and the cells were washed once with 200 μl of assay buffer (Krebs-Ringer-buffer—KRBH). The buffer was removed and the cells were incubated for 15 min at room temperature in 10 μl KRBH (KRBH+10 mM HEPES, 5 mM NaHCO3, 0.1% (V/V) BSA) with 0.1 mM IBMX in deionized water containing increasing concentrations of test peptides. The reaction was stopped by the addition of lysis buffer (0.1% w/v BSA, 5 mM HEPES, 0.3% v/v Tween-20). After cell lysis for 10 min at room temperature, lysates were transferred to 384-well plates and 10 μl of acceptor/donorbead mixture as contained in the AlphaScreen™ cAMP Functional Assay Kit was added. After one hour of incubation at room temperature in the dark, the cAMP content was determined applying the AlphaScreen™ cAMP Functional Assay Kit from Perkin-Elmer according to manufacturer instructions. EC50 and relative efficacies compared to reference compounds (glucagon and GLP-1) were calculated applying computer aided curve fitting. The GLP-1/glucagon ratio is calculated as defined earlier.
Take `CC[C@H](C)[C@H](NC(=O)[C@H](Cc1ccccc1)NC(=O)[C@H](CC(=O)O)NC(=O)[C@H](CCCCN)NC(=O)[C@H](C)NC(=O)[C@H](C)NC(=O)[C@H](CCCNC(=N)N)NC(=O)[C@H](CCCCNC(=O)CNC(=O)CNC(=O)[C@H](CO)NC(=O)CNC(=O)[C@H](CO)NC(=O)CNC(=O)CC[C@H](NC(=O)CCCCCCCCCCCCCCCCC(=O)O)C(=O)O)NC(=O)[C@H](CCC(=O)O)NC(=O)[C@H](CC(C)C)NC(=O)[C@H](Cc1ccc(O)cc1)NC(=O)[C@H](CCCCN)NC(=O)[C@H](CO)NC(=O)[C@H](Cc1ccc(O)cc1)NC(=O)[C@H](CC(=O)O)NC(=O)[C@H](CO)NC(=O)[C@@H](NC(=O)[C@H](Cc1ccccc1)NC(=O)[C@@H](NC(=O)CNC(=O)[C@H](CCC(N)=O)NC(=O)C(C)(C)NC(=O)[C@@H](N)Cc1c[nH]cn1)[C@@H](C)O)[C@@H](C)O)C(=O)N[C@@H](CCC(=O)O)C(=O)N[C@@H](Cc1c[nH]c2ccccc12)C(=O)N[C@@H](CC(C)C)C(=O)N[C@@H](CCC(=O)O)C(=O)N[C@@H](CO)C(=O)N[C@@H](C)C(N)=O` [Compound 6, H-H-Aib-QGTFTSDYSKYLE-K([17-carboxy-heptadecanoyl]-isoGlu-GSGSGG)-RAAKDFIEWLESA-NH2]: the “Ratio GLP-1/Glucagon” value came out at 3.25.
Take `CC[C@H](C)[C@H](NC(=O)[C@H](Cc1ccccc1)NC(=O)[C@H](CC(=O)O)NC(=O)[C@H](CCCCN)NC(=O)[C@H](C)NC(=O)[C@H](C)NC(=O)[C@H](CCCNC(=N)N)NC(=O)[C@H](CCCCNC(=O)CNC(=O)CNC(=O)[C@H](CO)NC(=O)CNC(=O)[C@H](CO)NC(=O)CNC(=O)CC[C@H](NC(=O)CCCCCCCCCCCCCCCCC(=O)O)C(=O)O)NC(=O)[C@H](CC(=O)O)NC(=O)[C@H](CC(C)C)NC(=O)[C@H](Cc1ccc(O)cc1)NC(=O)[C@H](CCCCN)NC(=O)[C@H](CO)NC(=O)[C@H](Cc1ccc(O)cc1)NC(=O)[C@H](CC(=O)O)NC(=O)[C@H](CO)NC(=O)[C@@H](NC(=O)[C@H](Cc1ccccc1)NC(=O)[C@@H](NC(=O)CNC(=O)[C@H](CCC(N)=O)NC(=O)C1(NC(=O)[C@@H](N)Cc2c[nH]cn2)CCC1)[C@@H](C)O)[C@@H](C)O)C(=O)N[C@@H](CCC(=O)O)C(=O)N[C@@H](Cc1c[nH]c2ccccc12)C(=O)N[C@@H](CC(C)C)C(=O)N[C@@H](CCC(=O)O)C(=O)N[C@@H](CO)C(=O)N[C@@H](C)C(N)=O` [Compound 7, H-H-Ac4c-QGTFTSDYSKYLD-K([17-carboxy-heptadecanoyl]-isoGlu-GSGSGG)-RAAKDFIEWLESA-NH2]: the “Ratio GLP-1/Glucagon” value came out at 8.82.
In the case of `CC[C@H](C)[C@H](NC(=O)[C@H](Cc1ccccc1)NC(=O)[C@H](CC(=O)O)NC(=O)[C@H](Cc1c[nH]cn1)NC(=O)[C@H](C)NC(=O)[C@H](C)NC(=O)[C@H](CCCNC(=N)N)NC(=O)[C@H](CCCCNC(=O)COCCOCCNC(=O)COCCOCCNC(=O)CC[C@H](NC(=O)CCCCCCCCCCCCCCCCC(=O)O)C(=O)O)NC(=O)[C@H](CCC(=O)O)NC(=O)[C@H](CC(C)C)NC(=O)[C@H](Cc1ccc(O)cc1)NC(=O)[C@H](CCCCN)NC(=O)[C@H](CO)NC(=O)[C@H](Cc1ccc(O)cc1)NC(=O)[C@H](CC(=O)O)NC(=O)[C@H](CO)NC(=O)[C@@H](NC(=O)[C@H](Cc1ccccc1)NC(=O)[C@@H](NC(=O)CNC(=O)[C@H](CCC(N)=O)NC(=O)C(C)(C)NC(=O)[C@@H](N)Cc1c[nH]cn1)[C@@H](C)O)[C@@H](C)O)C(=O)N[C@@H](CCC(=O)O)C(=O)N[C@@H](Cc1c[nH]c2ccccc12)C(=O)N[C@@H](CC(C)C)C(=O)N[C@@H](CCC(=O)O)C(=O)N[C@@H](CO)C(=O)N[C@@H](C)C(N)=O` [Compound 8, H-H-Aib-QGTFTSDYSKYLE-K([17-carboxy-heptadecanoyl]-isoGlu-Peg3-Peg3)-RAAHDFIEWLESA-NH2] (H-H[Aib]QGTFTSDYSKYLEK([AEEA-AEEA-γGlu-C18 diacid])RAAHDFIEWLESA-NH2), the “Ratio GLP-1/Glucagon” value is listed as 2.58.
On the same count and under the same terms, to `CC[C@H](C)[C@H](NC(=O)[C@H](Cc1ccccc1)NC(=O)[C@H](CC(=O)O)NC(=O)[C@H](CCCCN)NC(=O)[C@H](C)NC(=O)[C@H](C)NC(=O)[C@H](CCCCNC(=O)CC[C@H](NC(=O)CCCCCCCCCCCCCCCCC(=O)O)C(=O)O)NC(=O)[C@H](CCC(=O)O)NC(=O)[C@H](CC(=O)O)NC(=O)[C@H](CC(C)C)NC(=O)[C@H](Cc1ccc(O)cc1)NC(=O)[C@H](CCCCN)NC(=O)[C@H](CO)NC(=O)[C@H](Cc1ccc(O)cc1)NC(=O)[C@H](CC(=O)O)NC(=O)[C@H](CO)NC(=O)[C@@H](NC(=O)[C@H](Cc1ccccc1)NC(=O)[C@@H](NC(=O)CNC(=O)[C@H](CCC(N)=O)NC(=O)C1(NC(=O)[C@@H](N)Cc2c[nH]cn2)CCC1)[C@@H](C)O)[C@@H](C)O)C(=O)N[C@@H](CCC(=O)O)C(=O)N[C@@H](Cc1c[nH]c2ccccc12)C(=O)N[C@@H](CC(C)C)C(=O)N[C@@H](CCC(=O)O)C(=O)N[C@@H](CO)C(=O)N[C@@H](C)C(N)=O` [Compound 11, H-H-Ac4c-QGTFTSDYSKYLDE-K([17-carboxy-heptadecanoyl]-isoGlu)-AAKDFIEWLESA-NH2] belongs 2.00; to `CC[C@H](C)[C@H](NC(=O)[C@H](Cc1ccccc1)NC(=O)[C@H](CC(=O)O)NC(=O)[C@H](CCCCN)NC(=O)[C@H](C)NC(=O)[C@H](C)NC(=O)[C@H](CCCNC(=N)N)NC(=O)[C@H](CCC(=O)O)NC(=O)[C@H](CC(=O)O)NC(=O)[C@H](CC(C)C)NC(=O)[C@H](Cc1ccc(O)cc1)NC(=O)[C@H](CCCCN)NC(=O)[C@H](CO)NC(=O)[C@H](Cc1ccc(O)cc1)NC(=O)[C@H](CC(=O)O)NC(=O)[C@H](CO)NC(=O)[C@@H](NC(=O)[C@H](Cc1ccccc1)NC(=O)[C@@H](NC(=O)CNC(=O)[C@H](CCC(N)=O)NC(=O)C1(NC(=O)[C@@H](N)Cc2c[nH]cn2)CCC1)[C@@H](C)O)[C@@H](C)O)C(=O)N[C@@H](CCCCNC(=O)CNC(=O)CNC(=O)[C@H](CO)NC(=O)CNC(=O)[C@H](CO)NC(=O)CNC(=O)CC[C@H](NC(=O)CCCCCCCCCCCCCCCCC(=O)O)C(=O)O)C(=O)N[C@@H](Cc1c[nH]c2ccccc12)C(=O)N[C@@H](CC(C)C)C(=O)N[C@@H](CCC(=O)O)C(=O)N[C@@H](CO)C(=O)N[C@@H](C)C(N)=O` [Compound 13], 0.63.
As to `CC[C@H](C)[C@H](NC(=O)[C@H](Cc1ccccc1)NC(=O)[C@H](CC(=O)O)NC(=O)[C@H](CCCCN)NC(=O)[C@H](C)NC(=O)[C@H](C)NC(=O)[C@H](CCCNC(=N)N)NC(=O)[C@H](CCC(=O)O)NC(=O)[C@H](CC(=O)O)NC(=O)[C@H](CC(C)C)NC(=O)[C@H](Cc1ccc(O)cc1)NC(=O)[C@H](CCCCN)NC(=O)[C@H](CO)NC(=O)[C@H](Cc1ccc(O)cc1)NC(=O)[C@H](CC(=O)O)NC(=O)[C@H](CO)NC(=O)[C@@H](NC(=O)[C@H](Cc1ccccc1)NC(=O)[C@@H](NC(=O)CNC(=O)[C@H](CCC(N)=O)NC(=O)C1(NC(=O)[C@@H](N)Cc2c[nH]cn2)CCC1)[C@@H](C)O)[C@@H](C)O)C(=O)N[C@@H](CCC(=O)O)C(=O)N[C@@H](Cc1c[nH]c2ccccc12)C(=O)N[C@@H](CC(C)C)C(=O)N[C@@H](CCC(=O)O)C(=O)N[C@@H](CCCCNC(=O)CNC(=O)CNC(=O)[C@H](CO)NC(=O)CNC(=O)[C@H](CO)NC(=O)CNC(=O)CC[C@H](NC(=O)CCCCCCCCCCCCCCCCC(=O)O)C(=O)O)C(=O)N[C@@H](C)C(N)=O` [Compound 15], the “Ratio GLP-1/Glucagon” value stood at 0.65.

The same assay, now with this note: cAMP formation, CHO cells expressing human GLP-1-R, 15 min; read-out: EC50 hGLP-1R CHO-K1.
`CC[C@H](C)[C@H](NC(=O)[C@H](Cc1ccccc1)NC(=O)[C@H](CC(=O)O)NC(=O)[C@H](CCCCN)NC(=O)[C@H](C)NC(=O)[C@H](C)NC(=O)[C@H](CCCNC(=N)N)NC(=O)[C@H](CCCCNC(=O)CNC(=O)CNC(=O)[C@H](CO)NC(=O)CNC(=O)[C@H](CO)NC(=O)CNC(=O)CC[C@H](NC(=O)CCCCCCCCCCCCCCCCC(=O)O)C(=O)O)NC(=O)[C@H](CC(=O)O)NC(=O)[C@H](CC(C)C)NC(=O)[C@H](Cc1ccc(O)cc1)NC(=O)[C@H](CCCCN)NC(=O)[C@H](CO)NC(=O)[C@H](Cc1ccc(O)cc1)NC(=O)[C@H](CC(=O)O)NC(=O)[C@H](CO)NC(=O)[C@@H](NC(=O)[C@H](Cc1ccccc1)NC(=O)[C@@H](NC(=O)CNC(=O)[C@H](CCC(N)=O)NC(=O)C1(NC(=O)[C@@H](N)Cc2c[nH]cn2)CCC1)[C@@H](C)O)[C@@H](C)O)C(=O)N[C@@H](CCC(=O)O)C(=O)N[C@@H](Cc1c[nH]c2ccccc12)C(=O)N[C@@H](CC(C)C)C(=O)N[C@@H](CCC(=O)O)C(=O)N[C@@H](CO)C(=O)N[C@@H](C)C(N)=O` [Compound 7, H-H-Ac4c-QGTFTSDYSKYLD-K([17-carboxy-heptadecanoyl]-isoGlu-GSGSGG)-RAAKDFIEWLESA-NH2]: the EC50 was 0.97 nM.
